Assay results published in patent publication US20020009713A1, “Methods for identifying modulators of neuronal growth” (priority 2000, published 2002).

Tests used:
rat sympathetic neurons [1] = test: MTT survival assay of cultured sympathetic neurons; assay type: cell-based
Method: Neurons were plated at low density (approximately one ganglion/well) in Nunclon™ 4-well culture dishes (Gibco BRL, Burlington, Ontario, Canada), coated with either rat tail collagen or poly-D-lysine and laminin (both from Collaborative Biomedical Products, Bedford, Mass.). Culture medium was UltraCulture (BioWhittaker, Walkersville, Md.), supplemented with 3% rat serum (Harlan Bioproducts, Madison, Wis.), 2 mM glutamine, 100 U/ml penicillin, 100 μg/ml streptomycin (all from BioWhittaker), and for the first two days, 7 μM cytosine arabinoside (Sigma-Aldrich Canada Ltd., Oakville, Ontario, Canada).
(§1) NGF-dependent neurons were selected by culturing sympathetic neurons for five days in the presence of 50 ng/ml NGF. Neurons were washed three times for one hour each in neurotrophin-free media, and were then fed with media containing 10 ng/ml NGF alone, or various concentrations of NGF plus either 100 ng/ml BDNF, 10 μg/ml αBDNF, or a 1:100 dilution of antiserum containing the p75^NTR antibody, REX (Weskamp and Reichardt, Neuron 6: 649-663, 1991). Each condition was repeated in triplicate, and analysis of survival was performed 48 hours later by using nonradioactive cell proliferation (MTT) assays (Celltitre 96; Promega; Belliveau et al., J. Cell Biol. 136:375-388, 1997). Specifically, 50 μl of the MTT reagent was added to 500 μl media in each well, and incubated for two hours at 37° C. After aspiration of the MTT containing media, 100 μl of a 0.065N HCl/isopropanol mixture was added to each well to lyse the cells, and colorimetric analysis was performed using an ELISA reader. For rat sympathetic neurons, 10 ng/ml NGF represents 100% survival, therefore all other values were considered to be relative to 10 ng/ml NGF. For mouse neurons, 7.5 ng/ml NGF represents 100% survival, and was thus considered to be the 100% survival threshold for neuritogenesis experiments.

sympathetic neurons [2] = test: Quantitative dot-blot of MAP2 association with microtubules and microtubule stability; assay type: cell-based, rat; details: for amount of MAP2 bound to microtubules: two days
Method: FIG. 22 is a schematic illustration showing immuno-dot blot analysis of MAP2 association and tubulin dynamics in SCG neurons. […]
(§2) Microtubules were isolated from cultured sympathetic neurons, and the relative amount of MAP2 present per microgram tubulin was determined using quantitative dot-blot analysis. […] Depolarization enhances MAP2 levels and CamKII phosphorylation in sympathetic neurons. We performed western blot analysis of sympathetic neurons treated with 10 ng/ml NGF, 50 mM KCl, or NGF+KCl. Lysates containing equal amounts of protein were separated by SDS-PAGE, transferred to nitrocellulose, and then probed for MAP2, phosphorylated-CamKII, phosphorylated-ERKs, or total ERK protein. KCl increases the amount of MAP2 present in sympathetic neurons, and enhances CamKII phosphorylation.
(§3) Inhibition of either CamKII or MEK is sufficient to inhibit activitydependent dendrite formation. Immunocytochemical analysis for MAP2 on sympathetic neurons cultured in the presence of NGF+KCl with or without 10 um KN62, 75 um PD98059, 100 nM H-89 or 10 uM forskolin. […] In this study, microtubule stability was determined in sympathetic neurons maintained in NGF or NGF+KCl, and treated with selective pharmacological inhibitors.

sympathetic neurons [3] = test: Western blot / biochemical analysis of MAP2, phosphorylated-CamKII and phosphorylated-ERKs; assay type: cell-based, rat; details: for MAP2 levels: FIG. 27, NGF, KCl and kinase inhibitors
Method: as §2

sympathetic neurons [4] = test: Activity-dependent dendrite formation, MAP2 immunocytochemistry and image analysis; assay type: cell-based, rat; details: for activity-dependent dendrite formation (MAP2): NGF+KCl, 10 um KN62, 75 um PD98059
Method: Dendritic growth can be measured as follows. Ninty-six-well plates are coated for […] with rat tail collagen (prepared in a dilution of 1% glacial acetic acid). After one hour, excess collagen is aspirated and allow to dry completely. SCG neurons are dissected, triturated and plated. Cells may also be plated onto 8-well chamber slides. Cells are fed after about three days and, after about five days, are switched to either 50 mM KCl or 10 ng/ml NGF+50 mM KCl for about three additional days. Neurons are washed briefly with PBS and then fixed for 10 minutes with 4% formaldehyde in PBS (freshly prepared). Excess fixative is removed by 3×5 min washes with PBS. Cells are stained for one hour at room temperature with the following antibodies with 3×5 min PBS washes after each incubation: primary antibody—mouse monoclonal IgG1 anti high molecular weight MAP2 (clone AP20, from Sigma), secondary antibody—donkey anti mouse CY3, minimum cross to mouse and rabbit (Jackson Immunochemicals). Cell are mounted and at least three fields of view are captured using an upright fluorescence microscope using 530 excitation/580 emission filters. For each individual neuron in a given field (minimum 250 neurons total), the distance of MAP2 positive staining from the perimeter of the cell body is measured. These measurements are performed and tabulated using NIH image. The tabulated data are then expressed as a population histogram, binning all the measured lengths into 2 μm bins. This analysis gives an overall measure of the extent of dendritic differentiation in the population.
Neuronal depolarization causes dendrite formation in cultured sympathetic neurons, and NGF enhances this dendritogenesis. FIGS. 19A-19C, 20A, 20B show immunocytochemical analysis of sympathetic neurons cultured in the presence of NGF, switched to 10 ng/ml NGF, 50 mM KCl, or 10 ng/ml NGF+50 mM KCl for two days, and then stained for the dendrite-specific protein MAP2. FIGS. 20A and 20B are high magnification views of fields similar to those shown at lower-magnification in FIGS. 19A and 19C, respectively. The MAP2-immunoreactive processes show morphology characteristic of dendrites. The amount of dendritic formation could be readily quantified.
as §3

ERK, Akt, CamKII = test: Check of inhibitor selectivity for ERK, Akt and CamKII pathways; assay type: cell-based
rat sympathetic neurons [5] = test: In vitro neuritogenesis assay (neuritic process density); assay type: cell-based; details: 100 ng/ml BDNF in 10 ng/ml NGF, two days, six experiments
Method: Regulation of neuronal growth was analyzed by an in vitro neuritogenesis assay. Postnatal day one rat sympathetic neurons were cultured in 50 ng/ml NGF for two to three days in order to upregulate p75^NTR, whose increased expression in response to NGF occurs independently of neuronal survival. Following a one hour wash in neurotrophin-free medium, cultures were maintained for an additional two days in 10 ng/ml NGF plus or minus 100 ng/ml BDNF. Fields in sister cultures containing a similar number of neuronal cell bodies were then photographed, and neuritic process density was determined as described below. […]
Quantitative analysis was performed by using common statistics applied to random sets of lines and determining the number of intersection points per unit area. […] Low density fields were photographed, and the number of visible intersections and bifurcations of cell processes per unit area was considered to be a quantitative measure of process density. Since the number of neurites is a direct function of the number of neurons, however, the number of intersections and bifurcations counted per unit area was normalized to the number of cell bodies in that same area of interest. […] Results are expressed as the mean density plus or minus the standard error of the mean.

[6] = test system: mouse sympathetic neurons; test: MTT survival assay of mouse sympathetic neurons; assay type: cell-based
Method: CD-1 mouse sympathetic neurons were cultured by a modification of the method used to prepare rat neurons. Mouse cultures were essentially prepared the same way, but were dissociated in UltraCulture medium rather than Hanks' balanced saline solution. 3% fetal bovine serum (Gibco) was used instead of rat serum, and 3.5 μM cytosine arabinoside was added to the culture medium on day one post-plating.
as §1, with “Each condition was repeated in triplicate, and analysis of survival was performed 48 hours later by using nonradioactive cell proliferation (MTT) assays (Celltitre 96; Promega; Belliveau et al., J.” left out, “For mouse neurons, 7.5 ng/ml NGF represents 100% survival, and was thus considered to be the 100% survival threshold for neuritogenesis experiments.” left out

[7] = test system: murine sympathetic neurons; test: Neuritogenesis assay in wild type and p75NTR-/- murine sympathetic neurons; assay type: cell-based, mouse; details: 7.5 ng/ml NGF plus 100 ng/ml BDNF
TrkB = test: BDNF neutralization: TrkB tyrosine phosphorylation in TrkB-expressing NIH-3T3 cells; assay type: cell-based; details: 50 ng/ml BDNF, five minutes
Method: To test the capacity of anti-BDNF to neutralize BDNF, TrkB-expressing NIH-3T3 cells were cultured in Dulbecco's modified Eagle medium. Briefly, cells were washed twice and incubated for one hour at 37° C. in buffer, followed by a 30 minute wash at 37° C. in a phosphate-free buffer. Treatment consisted of incubating cells for five minutes with either 50 ng/ml BDNF (Promega) or with BDNF preabsorbed for four hours at 4° C. with increasing concentrations of the BDNF antibody (5-40 μg/ml). In addition, TrkB-3T3 cells were treated with medium only, or medium plus 40 μg/ml nonimmune chicken IgY. Following these treatments, cells were lysed, immunoprecipitated with anti-pan Trk (Hempstead et al., Neuron 9:883-896, 1992), and the immunoprecipitates analyzed for TrkB activation by Western blot analysis with phosphotyrosine antibody 4G10 (Upstate Biotechnology Inc., Lake Placid, N.Y.).

[8] = 10 ng/ml NGF added to 50 mM KCl

O=S(=O)(NCCNC/C=C/c1ccc(Br)cc1)c1cccc2cnccc12 [H-89]
survival of sympathetic neurons (MTT) (rat sympathetic neurons [1]; cultured in NGF or NGF+KCl): None of these compounds perturbs

[Cl-].[K+] [KCl]
amount of MAP2 bound to microtubules (sympathetic neurons [2]; 50 mM KCl): greatly enhances | CamKII phosphorylation (sympathetic neurons [3]; 50 mM KCl): enhances | amount of MAP2 present in sympathetic neurons (sympathetic neurons [3]; 50 mM KCl): increases

CN([C@@H](Cc1ccc(OS(=O)(=O)c2cccc3cnccc23)cc1)C(=O)N1CCN(c2ccccc2)CC1)S(=O)(=O)c1cccc2cnccc12 [KN-62]
KCl-induced increase in microtubule stability (sympathetic neurons [2]; neurons maintained in NGF or NGF+KCl): completely inhibit | activity-dependent dendrite formation (MAP2) (sympathetic neurons [4]): completely abolished | ERK or Akt activation (ERK, Akt, CamKII): do not affect | survival of sympathetic neurons (MTT) (rat sympathetic neurons [1]; cultured in NGF or NGF+KCl): None of these compounds perturbs | survival of sympathetic neurons (MTT) (rat sympathetic neurons [1]; cultured only in 50 mM KCl): dramatically reduces | MAP2 levels (sympathetic neurons [3]): reduce

COc1cccc(-c2cc(=O)c3ccccc3o2)c1N [PD98059]
activity-dependent dendrite formation (MAP2) (sympathetic neurons [4]): completely abolished | CamKII activity (ERK, Akt, CamKII): does not affect | MAP2 levels (sympathetic neurons [3]): reduce

B1: BDNF: brain-derived neurotrophic factor; recombinant human BDNF (protein, UniProt P23560 19-247, looked up)
Neurotrophic factor BDNF …: APMKEANIRGQGGLAYPGVRTHGTLESVNGPKAGSRGLTSLADTFEHVIEELLDEDQKVRPNEENNKDADLYTSRVMLSSQVPLEPPLLFLLEEYKNYLDAANMSMRVRRHSDPARRGELSVCDSISEWVTAADKKTAVDMSGGTVTVLEKVPVSKGQLKQYFYETKCNPMGYTKEGCRGIDKRHWNSQCRTTQSYVRALTMDSKKRIGWRFIRIDTSCVCTLTIKRGR
average decrease of process network density (rat sympathetic neurons [5]): 40% | mouse sympathetic neuron survival (MTT) ([6]; 7.5 or 10 ng/ml NGF plus 100 ng/ml BDNF): did not affect | sympathetic neuron survival (MTT) (rat sympathetic neurons [1]; 100 ng/ml BDNF in 10 ng/ml NGF, two days): no effect | effect on growth ([7]; p75NTR-/- neurons): no effect | average decrease of neuronal growth ([7]; wild type mouse cultures): 35% | tyrosine phosphorylation of TrkB (TrkB): robust increase

B2: NGF: nerve growth factor purified from mouse salivary glands (protein, UniProt P01139 122-241, looked up)
Beta-nerve growth factor: SSTHPVFHMGEFSVCDSVSVWVGDKTTATDIKGKEVTVLAEVNINNSVFRQYFFETKCRASNPVESGCRGIDSKHWNSYCTTTHTFVKALTTDEKQAAWRFIRIDTACVCVLSRKATRRG
amount of MAP2 bound to microtubules (sympathetic neurons [2]; [8]): enhances this effect to some degree | KCl-dependent dendritic growth (sympathetic neurons [4]; [8]): greatly enhances | dendritic growth (MAP2-positive dendrite length) (sympathetic neurons [4]; 10 ng/ml NGF on its own): little ability to cause dendritic growth | mouse sympathetic neuron survival (MTT) ([6]; 5, 7.5 and 10 ng/ml NGF, three days): maximal | ERK phosphorylation (sympathetic neurons [3]; 10 ng/ml NGF compared with 50 mM KCl): more potent stimulator
